# In patent US8324251B2, “Cyclic modulators of chemokine receptor activity” (Bristol-Myers Squibb Company, priority 2006, dated 2012):
# Where a name gives a salt, the structure may show the parent alone.
# Biological target: T1, CCR1 (Homo sapiens, UniProt P32246)
# T1 construct: the THP-1 cell line, which expresses the endogenous CCR1 receptor; endogenous in cells; host or cells: THP-1 cells (human monocytic cell line)
# T1 sequence (P32246 1-355): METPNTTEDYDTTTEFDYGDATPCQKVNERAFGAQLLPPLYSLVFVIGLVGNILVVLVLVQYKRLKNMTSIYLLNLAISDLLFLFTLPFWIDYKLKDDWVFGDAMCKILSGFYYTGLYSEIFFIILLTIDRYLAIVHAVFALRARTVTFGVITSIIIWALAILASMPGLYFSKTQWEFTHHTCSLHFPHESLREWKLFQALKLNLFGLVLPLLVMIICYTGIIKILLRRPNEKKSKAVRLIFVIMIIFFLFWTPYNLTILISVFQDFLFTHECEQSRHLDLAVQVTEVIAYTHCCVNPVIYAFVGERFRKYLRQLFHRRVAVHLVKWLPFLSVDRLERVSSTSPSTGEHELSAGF
# Experiment: Antagonism of MIP-1α binding to human THP-1 cells (125-I MIP-1α radioligand binding)
# Conditions: 125-I labeled human MIP-1α, THP-1 cells expressing endogenous CCR1; read-out: CCR1 Binding Ki (n = 1 unless otherwise noted)
# Experimental: Antagonism of MIP-1α Binding to Human THP-1 Cells
# Compounds of the present invention have activity in the antagonism of MIP-1α binding to human THP-1 cells described here.
# Millipore filter plates (#MABVN1250) are treated with 100 μl of binding buffer (0.5% bovine serum albumin, 20 mM HEPES buffer and 5 mM magnesium chloride in RPMI 1640 media) for thirty minutes at room temperature. To measure binding, 50 μl of binding buffer, with or without a known concentration of compound, is combined with 50 μl of ^125-I labeled human MIP-1α (to give a final concentration of […] radioligand) and 50 μl of binding buffer containing 5×10^5 cells. Cells used for such binding assays can include the THP-1 cell line, which expresses the endogenous CCR1 receptor, or human peripheral blood mononuclear cells, isolated by Ficoll-Hypaque gradient centrifugation, or human monocytes (Weiner et al., J. Immunol. Methods, 1980, 36, 89). The mixture of compound, cells and radioligand is incubated at room temperature for thirty minutes. Plates are placed onto a vacuum manifold, vacuum applied, and the plates washed three times with binding buffer containing 0.5M NaCl. The plastic skirt is removed from the plate, the plate allowed to air dry, the wells punched out and counted. The percent inhibition of binding is calculated using the total counts obtained in the absence of any competing compound and the background binding determined by addition of 100 nM MIP-1α in place of the test compound.
# Compounds of the present invention were tested in the assay described immediately above and the results, including results from the chiral separation of Example 1c, shown in Table 2 below were obtained.
row,Ki,SMILES
1,0.00449 ± 0.00115 µM,"NC(=O)Nc1cc(Cl)ccc1OCC(O)C1CCN(Cc2ccc(Cl)cc2)CC1 (racemic) [Example 1a, 1-(5-Chloro-2-(2-(1-(4-chlorobenzyl)piperidin-4-yl)-2-hydroxyethoxy)phenyl)urea, TFA salt]"
2,0.111 µM,"OC(COc1ccc(Cl)cc1)C1CCN(Cc2ccc(Cl)cc2)CC1 (racemic) [Example 1i, 1-(1-(4-Chlorobenzyl)piperidin-4-yl)-2-(4-chlorophenoxy)ethanol, TFA salt]"
3,6.44 µM,"OC(COc1ccc(Cl)cc1)C1CCN(Cc2ccccc2)CC1 (racemic) [Example 1l, 1-(1-Benzylpiperidin-4-yl)-2-(4-chlorophenoxy)ethanol, TFA salt]"
4,1.5 µM,"NC(=O)Nc1cc(Cl)ccc1OCC(O)C1CCN(Cc2ccc(Cl)c(Cl)c2)CC1 (single isomer, unassigned) [1c Enantiomer 1]"
5,0.0061 ± 0.00071 µM,"NC(=O)Nc1cc(Cl)ccc1OCC(O)C1CCN(Cc2ccc(Cl)c(Cl)c2)CC1 (single isomer, unassigned) [1c Enantiomer 2]"
